Tests used:
[1] = tested on: SAGPY (Arrowhead (Pygmaea)); experiment: Preemergence weed control under flooded paddy conditions; assay type: in vivo, Sagittaria pygmaea; details: rated 3-4 weeks after treatment
In short: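 Seeds or propagules sown in silt loam kept flooded 1.5-3 cm; compounds in 50/50 acetone/water pipetted into flood water at about 0.0313 to 0.500 kg/ha. Greenhouse; visual 0-9 rating versus untreated control 3-4 weeks after treatment.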

[2] = tested on: ECHORC (Watergrass (Calif.)); experiment: as above; assay type: in vivo, Echinochloa oryzoides; details: rated 3-4 weeks after treatment
In short: (§1)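 Flooded-pot preemergence screen with silt loam and seeds in the upper 0.5 cm. Dose about 0.0313 to 0.500 kg/ha, delivered into flood water; visual 0-9 score after 3 to 4 weeks.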

CYPIR (Rice Flatsedge) = experiment: as above; assay type: in vivo, Cyperus iria; details: rated 3-4 weeks after treatment
In short: as §1

[3] = tested on: TRZAWR (Wheat, Winter, cv Riband); experiment: Preemergence herbicidal evaluation; assay type: in vivo, Triticum aestivum; details: rated 4-5 weeks after treatment
In short: (§2)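 Seeds were mixed with potting soil and planted on about one inch of soil, then sprayed with test compound in aqueous acetone at about 0.0156 to 0.500 kg per hectare. Plants grew under standard greenhouse care and were visually rated 0-9 against untreated controls 4-5 weeks post-treatment.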

ABUTH (Velvetleaf) = experiment: Preemergence herbicidal evaluation; assay type: in vivo, Abutilon theophrasti; details: rated 4-5 weeks after treatment
In short: as §2

Row | Compound | herbicidal effect rating, SAGPY ([1]; 0.0313 kg/ha) | herbicidal effect rating, SAGPY ([1]; 0.0625 kg/ha) | herbicidal effect rating, SAGPY ([1]; 0.1250 kg/ha) | herbicidal effect rating, SAGPY ([1]; 0.2500 kg/ha) | herbicidal effect rating, ECHORC ([2]; 0.0313 kg/ha) | herbicidal effect rating, ECHORC ([2]; 0.0625 kg/ha) | herbicidal effect rating, ECHORC ([2]; 0.1250 kg/ha) | herbicidal effect rating, ECHORC ([2]; 0.2500 kg/ha) | herbicidal effect rating, CYPIR (CYPIR (Rice Flatsedge); 0.0313 kg/ha) | herbicidal effect rating, CYPIR (CYPIR (Rice Flatsedge); 0.0625 kg/ha) | herbicidal effect rating, CYPIR (CYPIR (Rice Flatsedge); 0.1250 kg/ha) | herbicidal effect rating, CYPIR (CYPIR (Rice Flatsedge); 0.2500 kg/ha) | Preemergence herbicidal rating TRZAWR ([3]; 0.0156 kg/ha) | Preemergence herbicidal rating TRZAWR ([3]; 0.0313 kg/ha) | Preemergence herbicidal rating TRZAWR ([3]; 0.0625 kg/ha) | Preemergence herbicidal rating TRZAWR ([3]; 0.1250 kg/ha) | Preemergence herbicidal rating TRZAWR ([3]; 0.2500 kg/ha) | Preemergence herbicidal rating ABUTH (ABUTH (Velvetleaf); 0.0156 kg/ha) | Preemergence herbicidal rating ABUTH (ABUTH (Velvetleaf); 0.0313 kg/ha) | Preemergence herbicidal rating ABUTH (ABUTH (Velvetleaf); 0.0625 kg/ha) | further results
1 | Cn1c(C(F)(F)F)cc(=O)n(-c2cc(N=C3SCC(=O)N3C3CCC3)c(Cl)cc2F)c1=O [Compound 168, 3-{4-Chloro-5-[(3-cyclobutyl-4-oxo-2-thiazolidinylidene)amino]-2-fluorophenyl}-1-methyl-6-(trifluoromethyl)-2,4(1H,3H)-pyrimidinedione] | 0.0 | 0.0 | 0.0 | 2.0 | 0.0 | 0.0 | 0.0 | 0.0 | 0.0 | 0.0 | 0.0 | 0.0 | 0.0 | 0.0 | 0.0 | 0.0 | 0.0 | 0.0 | 0.0 | 4.0 | Preemergence herbicidal rating ABUTH (ABUTH (Velvetleaf); 0.1250 kg/ha): 9.0; Preemergence herbicidal rating ABUTH (ABUTH (Velvetleaf); 0.2500 kg/ha): 9.0
2 | CCOC(=O)CN1C(=O)C(CC(=O)O)SC1=Nc1cc(N2C(=O)CC(C(F)(F)F)CC2=O)c(F)cc1Cl (stereo not drawn) [Compound 170, 2-{{2-Chloro-5-[2,6-dioxo-4-(trifluoromethyl)-piperidino]-4-fluorophenyl}imino}-4-oxo-3,5-thiazolidinediacetic acid, 3-ethyl ester] | 5.0 | 9.0 | 8.0 | 9.0 | 9.0 | 9.0 | 9.0 | 9.0 | 9.0 | 9.0 | 9.0 | 9.0 | 0.0 | 6.0 | 7.0 | 8.0 | 9.0 | 0.0 | 6.0 | 9.0 | Preemergence herbicidal rating ABUTH (ABUTH (Velvetleaf); 0.1250 kg/ha): 9.0; Preemergence herbicidal rating ABUTH (ABUTH (Velvetleaf); 0.2500 kg/ha): 9.0
3 | COCCCN1C(=O)CSC1=Nc1cc(-n2c(=O)cc(C(F)(F)F)n(C)c2=O)c(F)cc1Cl [Compound 172, 3-{4-Chloro-2-fluoro-5-{[3-(3-methoxypropyl)-4-oxo-2-thiazolidinylidene]amino}phenyl}-1-methyl-6-(trifluoromethyl)-2,4(1H, 3H)-pyrimidinedione] | 6.0 | 6.0 | 9.0 | 9.0 | 6.0 | 9.0 | 9.0 | 9.0 | 5.0 | 7.0 | 8.0 | 9.0 | 2.0 | 3.0 | 7.0 | 7.0 | 9.0 | 9.0 | 9.0 | 9.0 | Preemergence herbicidal rating ABUTH (ABUTH (Velvetleaf); 0.1250 kg/ha): 9.0; Preemergence herbicidal rating ABUTH (ABUTH (Velvetleaf); 0.2500 kg/ha): 9.0

Source: patent US20020137929A1, “1 - (3-heterocyclylphenyl) isothiourea, -isourea, -guanidine and -amidine herbicidal agents” (Intellectual Property Department, BASF Aktiengesellschaft, priority 1998, published 2002)
